How the values were obtained:
[1] = test system: insulin-resistant C2C12 myotubes; assay: 2-Deoxy-D-glucose uptake, insulin-resistant C2C12 myotubes; assay type: cell-based, mouse; conditions: 0.6 mM palmitate; 100 nM insulin
Protocol: (§1) Skeletal muscle is the primary site of glucose metabolism, accounting for approximately […] of the entire body’s glucose uptake in the presence of insulin [22]. […] The effect of PEG-BHD1028 on glucose uptake in insulin-resistant C2C12 skeletal muscle cells was evaluated. To induce insulin resistance, differentiated C2C12 myotubes were treated with 0.6 mM palmitate and incubated for 16 h and then treated with 100 nM insulin and PEG-BHD1028 at concentrations of 100 and 500 nM for 30 min.
(§2) The 2-DG uptake of C2C12 cells was measured using the Glucose Uptake Assay Kit (Colorimetric, Ab136955, Abcam, Cambridge, UK) according to the manufacturer’s instruction. Palmitate to induce insulin resistance was prepared with minor modifications from the previous description. Briefly, palmitate was dissolved in 0.1 M NaOH to a concentration of 20 mM by heating at 75 °C and the dissolved solution was then diluted with 5% fatty acid-free bovine serum at a stock solution of 6 mM at 55 °C. Cells were treated with 0.6 mM palmitate overnight. The fixed cells were washed three times with DPBS, followed by incubation in Krebs-Ringer-Phosphate-Hepes (KRPH) buffer containing 2% fatty acid free-BSA for 40 min. […] Absorbance was measured using an Epoch microplate reader (BioTek Instruments, Inc., Winooski, VT, USA) at 412 nm.

C2C12 myotubes = assay: 2-Deoxy-D-glucose uptake, non-resistant C2C12 myotubes; assay type: cell-based, mouse; conditions: 100 nM insulin
Protocol: as §1, §2

[2] = via AMPK, after binding to AdipoR1 and AdipoR2 in the hypothalamus; cited from earlier work
Description: Besides the effect on the amelioration of insulin resistance, it has been widely known that adiponectin induces weight loss through fatty acid oxidation and energy expenditure. At the molecular level, adiponectin activates 5’ AMP-activated protein kinase (AMPK) and peroxisome proliferator-activated receptor alpha (PPARα) signal pathways. AMPK pathway ultimately enhances mitochondrial biogenesis and fatty acid β-oxidation, and the activated PPARα promotes uptake, utilization, and catabolism of fatty acids by upregulating the genes involved in fatty acid transport, fatty acid-binding ...

diabetic swine = conditions: cited from earlier work
Description: It has also been well accepted that adiponectin alleviates insulin resistance, and adiponectin deficiency leads to abnormal glucose metabolism. Thus, insulin resistance has been recognized as the most fundamental root cause of type 2 diabetes mellitus, and the concentration of circulating adiponectin is negatively correlated with insulin resistance. […] Recent studies also have shown that p38 MAPK acts as an essential mediator in regulating adiponectin-induced ...

## insulin: insulin
[1]
  glucose uptake, insulin-resistant cells, insulin alone: not observed
C2C12 myotubes
  glucose uptake, non-resistant cells, insulin alone: significantly increased

B1: adiponectin: hormone, endogenous ligand of AdipoR1 and AdipoR2 (protein, UniProt Q15848 19-244, looked up)
Adiponectin: ETTTQGPGVLLPLPKGACTGWMAGIPGHPGHNGAPGRDGRDGTPGEKGEKGDPGLIGPKGDIGETGVPGAEGPRGFPGIQGRKGEPGEGAYVYRSAFSVGLETYVTIPNMPIRFTKIFYNQQNHYDGSTGKFHCNIPGLYYFAYHITVYMKDVKVSLFKKDKAMLFTYDQYQENNVDQASGSVLLHLEVGDQVWLQVYGEGERNGLYADNDNDSTFTGFLLYHDTN
[2]
  appetite: induced appetite
Diabetic swine
  glucose metabolism / insulin sensitivity: enhanced glucose metabolism by improving insulin sensitivity
